Measurements as given in article PMC9821961, “Ring-Modified Histidine-Containing Cationic Short Peptides Exhibit Anticryptococcal Activity by Cellular Disruption” (Molecules, 2022).

Key:
in vitro = conditions: human, HEK-293 cells
Procedure: (§1) The cells (50,000 cells/well) were seeded to the wells of the plate in Dulbecco’s Modified Eagle Medium (DMEM) supplemented with 10% fetal bovine serum at 37 °C overnight and incubated for 24 h to achieve confluency. Peptides at different concentrations of 50, 25, 12.5, 6.25, 3.12, 1.56 and 0.78 μg/mL were added to the cells in separate wells and incubated at 37 °C for 18 h. A further 20 µL MTT solution (5 mg/mL stock conc. in PBS) was added and the plate was incubated for another 3–4 h. To detect the viable cells that react with MTT to make formazan crystals, 120 μL of supernatant was removed and 100 μL DMSO was added to dissolve the crystals. Untreated cells and DMSO (10%) were used as negative and positive controls, respectively [37]. The percent viability of cells was calculated using equation:(2) % Cell viability=Av. Absorbance of treated cells/Av. Absorbance of control cells×100

C. krusei = assay: microbe, parasite or virus in culture; type: cell-based, Candida krusei; conditions: 48 h
Summary of the method: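 Growth inhibition was measured by broth microdilution. MIC and IC50 were calculated from optical density at 600 nm after 48 h at 30 °C for Candida and Cryptococcus (10^3 CFU/mL, RPMI 1640 or YPED) and after 24 h at 37 °C for the Gram-positive bacteria (10^5 CFU/mL, Mueller Hinton).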

C. neoformans cells = assay: Cell death pattern analysis by flow cytometry (Annexin V-FITC/PI); type: cell-based, Cryptococcus neoformans; conditions: treated at MIC, 12 h; PI + annexin V-FITC
From the text: Apoptosis includes a series of events occurring inside the cell, causing changes in plasma membrane, genetic material and various internal proteins, therefore leading to programmed cell death. One of the early markers of apoptosis is the translocation of a membrane phospholipid, phosphatidylserine, from the inner to the outer leaflet of the plasma membrane without altering the integrity of the plasma membrane. Annexin V-FITC interacts with the externalized phosphatidylserine, therefore showing the cell change towards apoptosis which can be analyzed using flow cytometry. The four quadrants in flow cytometry indicate different stages of the cells. The percentage depicts the population of the cells in a specific stage. Q1 corresponds to the percentage of cells undergoing necrosis, Q2 depicts the early apoptotic stage of the cells whereas Q4 corresponds to the cells in late-stage apoptosis and Q3 depicts the cells in the native state.
The treated cells along with a batch of untreated cells were centrifuged at 2000× g for 10 min at 4 °C and suspended in cold phosphate-buffered saline (PBS), followed by 2–3 washings with PBS. The harvested treated and untreated cells were then incubated with zymolyase for 1 h at ambient temperature to obtain cell protoplasm. The staining of obtained protoplasm was done using an Annexin V-FITC detection kit (Sigma-Aldrich, Saint Louis, DE, USA). The protoplasm of untreated cells was divided into 4 tubes (2 mL) and into 3 tubes a different staining agent was added while one was kept unstained. […] Furthermore, two more samples were prepared where protoplasm of 10d- and 10o-treated cells were stained with both PI and annexin V-FITC. All 6 samples were then analyzed by using an FACS Calibur (Becton-Dickinson, San Jose, CA, USA) at excitation of 488 nm (for FITC) and 560 nm (for PI) band filter. Approximately 10,000 cells were used for counting.

C. glabrata = assay: microbe, parasite or virus in culture; type: cell-based, Candida glabrata; conditions: 48 h
Summary of the method: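 CLSI broth microdilution with two-fold serial dilutions of DMSO-dissolved peptides. Fungi (C. glabrata MTCC 3019, C. neoformans NCCPF250316) were grown in RPMI 1640 or YPED at 10^3 CFU/mL for 48 h at 30 °C. Bacteria (S. aureus MTCC 3160, E. faecalis MTCC 439) were grown in Mueller Hinton at 10^5 CFU/mL for 24 h at 37 °C. MIC and IC50 come from OD600.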

P. aeruginosa = assay: microbe, parasite or virus in culture; type: cell-based, Pseudomonas aeruginosa; conditions: 48 h
[1] = test system: C. neoformans (ATCC350) cells; assay: CLSM PI uptake assay; type: cell-based, Cryptococcus neoformans; conditions: at MIC, 12 h, then PI
Procedure: After incubation, treated and untreated cells were centrifuged at 2000× g for 10 min at 4 °C and suspended in cold PBS and followed by 2–3 washings with PBS. The cells were then incubated with PI (1.49 μM) for 1 h at room temperature with constant shaking (150× g rpm), and later harvested by centrifugation and suspended in PBS. Then, the cells were examined using confocal microscopy (Olympus Fluoview™ FV1000 SPD; Olympus, Tokyo, Japan) with a wavelength of >560 nm for PI. C. neoformans cells without treatment of active peptides served as a control.

Procedure for HeLa: as §1

Row | SMILES | Cytotoxic nature (HeLa) | CC50 at 18 h (in vitro) [µg/mL] | IC50 (C. krusei) [µg/mL] | MIC (C. krusei) [µg/mL] | Cell population in Q1 (necrosis) (C. neoformans cells) [%] | Cell population in Q2 (early apoptotic stage) (C. neoformans cells) [%] | Cell population in Q3 (native state) (C. neoformans cells) [%] | Cell population in Q4 (late-stage apoptosis) (C. neoformans cells) [%] | IC50 (C. glabrata) [µg/mL] | MIC (C. glabrata) [µg/mL] | IC50 (P. aeruginosa) [µg/mL] | MIC (P. aeruginosa) [µg/mL] | PI fluorescence of treated cells (CLSM) [1]
1 | COC(=O)[C@H](Cc1ncn(Cc2cc(C(C)(C)C)cc(C(C)(C)C)c2)c1I)NC(=O)[C@@H](N)Cc1c[nH]c2ccccc12 [10d, Trp-His[1-(3,5-di-tert-butylbenzyl)-5-iodo]-OMe] | non-cytotoxic | > 100 | >35.2 | >64.0 | 1.7 | 1.3 | 44.8 | 52.2 | >35.2 | >64.0 | >35.2 | >64.0 | prominent red fluorescence
2 | COC(=O)[C@H](Cc1ncn(Cc2ccccc2I)c1I)NC(=O)[C@@H](N)Cc1c[nH]c2ccccc12 [10o, Trp-His[1-(2-iodobenzyl)-5-iodo]-OMe] | non-cytotoxic | > 100 | >35.2 | >64.0 | 2 | 1 | 48.9 | 48.1 | >35.2 | >64.0 | >35.2 | >64.0 | prominent red fluorescence
